From patent US20230144619A1, “SALT OF ARYLAMINOPURINE DERIVATIVE, PREPARATION METHOD THEREFOR AND USE THEREOF” (CSPC Zhongqi Pharmaceutical Technology (Shijiazhuang) Co., …, priority 2020, published 2023)
Values after ≈ are worked out from the molar mass of the structure shown.

Key:
Assay type in all cases: physicochemical
[1] = Solubility test (UV spectrophotometer, saturated solutions shaken 24 hours); conditions: 25° C.; for Solubility, Water medium pH = 1.2: pH=1.2 hydrochloric acid solution; for Solubility, Water medium pH = 4.5: pH=4.5 phosphate buffer solution; for Solubility, Water medium pH = 6.8: pH=6.8 phosphate buffer solution; for Solubility, Water medium: water (purified water)
Method: Detection instrument: Ultraviolet spectrophotometer/Evolution 300
The following solutions with pH=1.2, pH=4.5, and pH=6.8 and water were used as the solvent, and the solvent preparation process was as follows:
(1) pH=1.2 hydrochloric acid solution: To 7.65 mL of hydrochloric acid was added 1000 mL of water, and the mixture was shaken uniformly to obtain the target solution.
(2) pH=4.5 phosphate buffer solution: 6.8 g of potassium dihydrogen phosphate was taken and diluted with water to 1000 mL, and the mixture was shaken uniformly to obtain the target solution.
(2) pH=6.8 phosphate buffer solution: 6.8 g of potassium dihydrogen phosphate and 0.896 g of sodium hydroxide were taken and diluted with water to 1000 mL, and the mixture was shaken uniformly to obtain the target solution.
(4) Water: purified water
Test tubes with stopper were taken, and 10 mL of dissolution media at various pH values were precisely added to the test tubes respectively, and excessive stock drugs were added until supersaturated solutions were formed. The adding amounts were recorded. The solutions were shaken uniformly, sealed with stoppers, and shaken for 24 hours in a shaker. 2 mL of solutions were taken out at different time points respectively, and centrifuged. The resulting supernatants were taken, filtered, and the subsequent filtrates were taken for later use.
The above-mentioned saturated solutions in different solvents were taken, and solvents were added to dilute the solutions to certain volumes. The absorbances were measured at a wavelength of 287 nm.
Preparation of a solution of the reference substance: an appropriate amount of the compound represented by Formula 1 was taken as the reference substance, and precisely weighed. A solvent was added to dissolve and dilute the reference compound to produce a solution containing about 10 μg of the compound represented by Formula 1 per 1 mL. The absorbance was measured at a wavelength of 287 nm to calculate the solubility.
The salts obtained in Examples 1 and 3-17 and the compound represented by Formula 1 were subjected to the solubility test in media and the test results were shown in the following table: […]

DSC and TGA tests = conditions: onset temperature
Method: 6. Differential Scanning Calorimetry-Thermogravimetric Analysis (DSC-TGA)
Detection instrument: NETZSCH STA 449F3
Temperature range: 20° C.-350° C.;
Heating rate: 10.0 (K/min);
7. Differential Scanning Calorimetry (DSC)
Detection instrument: NETZSCH DSC 214 Polyma
Temperature range: 20° C.-250° C.;
Heating rate: 5.0 (K/min);
8. Thermogravimetric Analysis (TGA)
Detection instrument: METTLER and SDT Q600
The salts obtained in Examples 1 and 3-17 and the compound represented by Formula 1 were subjected to the DSC and TGA tests in media, and the test results were shown in the following table: […]

Hygroscopicity test = conditions: 25±1° C., relative humidity 80%±2% (DVS, 80% RH)
Method: Detection instrument: XPE105DR
(1) A dry stoppered glass weighing bottle was taken, placed in a suitable constant-temperature desiccator at 25° C. 1° C. (with a saturated solution of ammonium chloride or ammonium sulfate in the lower part) or an artificial climate box (with the set temperature of 25° C.±1° C. and the relative humidity of 80%±2%) on the day before the test, and precisely weighed and recorded as the weight (m1).
(2) An appropriate amount of the test sample was taken and spread in the above-mentioned weighing bottle. The thickness of the test sample was generally about 1 mm, and the bottle was precisely weighed and recorded as the weight (m2).
(3) The stopper was removed to open the weighing bottle, and the opened weighing bottle and the stopper were placed under the above-mentioned constant temperature and humidity conditions for 24 hours.
(4) The opened weighing bottle was stoppered, precisely weighed, and recorded as the weight (m3).
Percentage increase in mass=(m3−m2)/(m2−m1)×100%
(5) The description of hygroscopicity characteristics and the definition for the weight gain due to hygroscopicity:
Deliquescence: Sufficient water was absorbed to form a liquid.
Very hygroscopic: the weight gain due to hygroscopicity was not less than 15%.
Hygroscopic: the weight gain due to hygroscopicity was less than 15% but not less than 2%.
Slightly hygroscopic: the weight gain due to hygroscopicity was less than 2% but not less than 0.2%.
Not or nearly not hygroscopic: the weight gain due to hygroscopicity was less than 0.2%.
Appropriate amounts of the salt samples obtained from Examples 1 and 3-17 were subjected to the hygroscopicity test at a temperature of 25±1° C. under a relative humidity of 80%±2%, and the results were as follows: […]

[2] = Accelerated stability test
Method: Appropriate amounts of the salt samples obtained from Examples 1 and 3-17 were placed at a temperature of 25±2° C. under 0%±5% RH in an open environment for 10 days and at a temperature of 40±2° C. under 75%±5% RH in an open environment for 10 days respectively to perform the accelerated tests, and the results were as follows: […]

[3] = Placed at 25 ± 2° C. under 0% ± 5% RH in an open environment for 10 days
[4] = Placed at 40 ± 2° C. under 75% ± 5% RH in an open environment for 10 days

SMILES | Solubility, Water medium pH = 1.2 [1] [mg/mL] | Solubility, Water medium pH = 4.5 [1] [mg/mL] | Solubility, Water medium pH = 6.8 [1] [mg/mL] | Solubility, Water medium [1] [mg/mL] | TGA: starting to lose the acid (DSC and TGA tests) | TGA: starting to lose the water of crystallization (DSC and TGA tests) | Hygroscopicity (Hygroscopicity test) | Weight gain due to hygroscopicity (Hygroscopicity test) [%] | Appearance [2, 3] | Appearance [2, 4]
CC(C)n1c(Nc2cccnc2)nc2cnc(Nc3ccc(N4CCN(C)CC4)cc3)nc21 [Example 3] | 360.00 | 207.53 | 153.30 | 212.73 (≈ 480 mM) | ~120 °C (see FIG. 21) | crystallization at about 40° C.; | Hygroscopic (the weight gain due to hygroscopicity was less than 15% but not less than 2%.) | 5.86 |  | 
CC(C)n1c(Nc2cccnc2)nc2cnc(Nc3ccc(N4CCN(C)CC4)cc3)nc21 [Example 4] | >1000 | >1000 | >1000 | >1000 | ~220 °C (see FIG. 23) | crystallization at about 40° C.; | Hygroscopic (the weight gain due to hygroscopicity was less than 15% but not less than 2%.) | 6.94 | Liquid | Liquid
CC(C)n1c(Nc2cccnc2)nc2cnc(Nc3ccc(N4CCN(C)CC4)cc3)nc21 [Example 5] | >1000 | >1000 | >1000 | >1000 | ~190 °C (see FIG. 25) | crystallization at about 40° C.; | Very hygroscopic (the weight gain due to hygroscopicity was not less than 15%.) | 19.62 | Liquid | Liquid
CC(C)n1c(Nc2cccnc2)nc2cnc(Nc3ccc(N4CCN(C)CC4)cc3)nc21 [Example 6] | 54.70 | 14.59 | 12.05 | 9.68 (≈ 21.8 mM) | ~170 °C (see FIG. 26) | crystallization at about 40° C.; | Slightly hygroscopic (the weight gain due to hygroscopicity was less than 2% but not less than 0.2%.) | 1.02 | Yellow solid | Yellow solid
CC(C)n1c(Nc2cccnc2)nc2cnc(Nc3ccc(N4CCN(C)CC4)cc3)nc21 [Example 7] | 43.07 | 6.51 | 12.24 | 6.91 (≈ 15.6 mM) | ~180 °C (see FIG. 27) | crystallization at about 40° C.; | Slightly hygroscopic (the weight gain due to hygroscopicity was less than 2% but not less than 0.2%.) | 1.19 | Yellow solid | Yellow solid
CC(C)n1c(Nc2cccnc2)nc2cnc(Nc3ccc(N4CCN(C)CC4)cc3)nc21 [Example 8] | 36.41 | 14.36 | 10.46 | 9.74 (≈ 22 mM) | ~180 °C (see FIG. 28) | crystallization at about 40° C.; | Slightly hygroscopic (the weight gain due to hygroscopicity was less than 2% but not less than 0.2%.) | 1.43 |  | 
CC(C)n1c(Nc2cccnc2)nc2cnc(Nc3ccc(N4CCN(C)CC4)cc3)nc21 [Example 9] | 44.51 | 15.17 | 11.48 | 10.50 (≈ 23.7 mM) | ~170 °C (see FIG. 29) | crystallization at about 40° C.; | Slightly hygroscopic (the weight gain due to hygroscopicity was less than 2% but not less than 0.2%.) | 1.43 |  | 
CC(C)n1c(Nc2cccnc2)nc2cnc(Nc3ccc(N4CCN(C)CC4)cc3)nc21 [Example 10] | 66.52 | 13.98 | 6.36 | 2.49 (≈ 5.61 mM) | ~170 °C (see FIG. 30) | crystallization at about 40° C.; | Slightly hygroscopic (the weight gain due to hygroscopicity was less than 2% but not less than 0.2%.) | 0.54 | Yellow solid | Yellow solid
CC(C)n1c(Nc2cccnc2)nc2cnc(Nc3ccc(N4CCN(C)CC4)cc3)nc21 [Example 12] | 42.39 | 2.70 | 0.14 | 3.09 (≈ 6.97 mM) | ~140 °C (see FIG. 33) | crystallization at about 40° C.; |  | 0.11 |  | 
CC(C)n1c(Nc2cccnc2)nc2cnc(Nc3ccc(N4CCN(C)CC4)cc3)nc21 [Example 13] | 59.71 | 8.42 | 1.12 | 5.06 (≈ 11.4 mM) | ~140 °C (see FIG. 35) | crystallization at about 40° C.; |  | 0.05 |  | 
CC(C)n1c(Nc2cccnc2)nc2cnc(Nc3ccc(N4CCN(C)CC4)cc3)nc21 [Example 16] | 129.50 | 90.03 | 90.09 | 76.59 (≈ 173 mM) | ~240 °C (See FIG. 40) | crystallization at about 40° C.; | Hygroscopic (the weight gain due to hygroscopicity was less than 15% but not less than 2%.) | 7.67 |  | 
CC(C)n1c(Nc2cccnc2)nc2cnc(Nc3ccc(N4CCN(C)CC4)cc3)nc21 [Example 17] | 33.29 | 21.64 | 31.39 | 16.51 (≈ 37.2 mM) | ~210 °C (see FIG. 41) | crystallization at about 40° C.; | Slightly hygroscopic (the weight gain due to hygroscopicity was less than 2% but not less than 0.2%.) | 1.34 |  | 
